What was measured:
[1] = biological target: T1, purified, recombinant human DPIV (Homo sapiens, UniProt P27487); assay: Inhibition of enzymatic activity of DPIV (fluorogenic substrate hydrolysis); format: biochemical; conditions: highest test item concentration 25 μM
T1 construct: made in house; host or cells: Sf9 insect cells
How it was run: (§1)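 Recombinant human DPIV (Sf9-derived, approx. 1 nM) and recombinant DP8/DP9 in 0.05M Tris/HCl pH 7.5 with 0.05% Triton, 0.05% BSA, 2 mM MgCl2. Substrates were Gly-Pro-AMC at 50 μM (ex 380/em 460 nm, read at 0–120 min) or (Ala-Pro)2-R110 at 1 μM (ex 488/em 530 nm). IC50 from ≥16 log2 dilutions, top 25 μM.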

[2] = biological target: T2, aminopeptidase N (APN), purified recombinant human enzyme (Homo sapiens, UniProt P15144); assay: Inhibition of enzymatic activity of aminopeptidase N (fluorogenic substrate hydrolysis); format: biochemical; conditions: highest test item concentration 25 μM
T2 construct: made in house; host or cells: ECV cells (transfected)
T2 sequence (P15144 whole entry): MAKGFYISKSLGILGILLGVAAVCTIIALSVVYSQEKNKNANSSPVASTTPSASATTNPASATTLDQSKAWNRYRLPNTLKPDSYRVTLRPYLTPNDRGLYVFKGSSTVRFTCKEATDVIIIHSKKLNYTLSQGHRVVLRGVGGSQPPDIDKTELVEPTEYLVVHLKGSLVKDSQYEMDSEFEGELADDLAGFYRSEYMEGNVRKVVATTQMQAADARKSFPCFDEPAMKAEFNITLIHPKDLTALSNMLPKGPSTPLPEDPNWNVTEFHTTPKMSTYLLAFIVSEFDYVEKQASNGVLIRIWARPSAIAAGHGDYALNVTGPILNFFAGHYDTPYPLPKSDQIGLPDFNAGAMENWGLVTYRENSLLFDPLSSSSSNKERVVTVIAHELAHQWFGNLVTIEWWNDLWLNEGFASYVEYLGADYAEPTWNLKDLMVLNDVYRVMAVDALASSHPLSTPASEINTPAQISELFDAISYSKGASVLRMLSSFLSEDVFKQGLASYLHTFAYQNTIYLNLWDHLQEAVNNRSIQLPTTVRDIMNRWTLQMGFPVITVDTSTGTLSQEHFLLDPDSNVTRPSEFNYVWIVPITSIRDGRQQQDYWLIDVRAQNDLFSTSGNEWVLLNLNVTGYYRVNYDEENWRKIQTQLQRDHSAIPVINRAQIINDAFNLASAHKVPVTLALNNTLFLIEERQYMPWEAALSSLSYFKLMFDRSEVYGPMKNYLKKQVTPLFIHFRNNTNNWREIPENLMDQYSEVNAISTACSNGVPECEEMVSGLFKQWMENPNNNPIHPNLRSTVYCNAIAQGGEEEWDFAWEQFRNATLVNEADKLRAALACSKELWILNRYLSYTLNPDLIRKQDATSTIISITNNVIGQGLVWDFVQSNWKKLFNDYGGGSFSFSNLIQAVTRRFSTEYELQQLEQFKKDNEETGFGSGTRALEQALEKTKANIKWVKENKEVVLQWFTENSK
How it was run: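 Recombinant human APN from transfected ECV cells was used at approx. 1 nM final, in 0.05M TRIS/HCl pH 7.5 with 0.05% Triton, 0.05% BSA and 2 mM MgCl2. Fluorescence release was read from H-Ala-AMC (50 μM) or (Ala-)2-R110 (1 μM). IC50 values came from at least 16 log2 dilutions starting at 25 μM top concentration.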

[3] = test system: purified, recombinant DP8 and DP9; assay: Inhibition of enzymatic activity of DP8/9; format: biochemical; conditions: highest test item concentration 25 μM
How it was run: as §1

[4] = biological target: T3, cytosolic aminopeptidase (cAAP) purified from Jurkat cells (Homo sapiens, UniProt P55786); assay: Inhibition of enzymatic activity of cytosolic aminopeptidase (cAAP); format: biochemical; conditions: highest test item concentration 25 μM
T3 construct: The cytosolic aminopeptidase (cAAP) was purified from Jurkat cells; endogenous in cells; host or cells: Jurkat cells (enzyme purified from them)
T3 sequence (P55786 whole entry): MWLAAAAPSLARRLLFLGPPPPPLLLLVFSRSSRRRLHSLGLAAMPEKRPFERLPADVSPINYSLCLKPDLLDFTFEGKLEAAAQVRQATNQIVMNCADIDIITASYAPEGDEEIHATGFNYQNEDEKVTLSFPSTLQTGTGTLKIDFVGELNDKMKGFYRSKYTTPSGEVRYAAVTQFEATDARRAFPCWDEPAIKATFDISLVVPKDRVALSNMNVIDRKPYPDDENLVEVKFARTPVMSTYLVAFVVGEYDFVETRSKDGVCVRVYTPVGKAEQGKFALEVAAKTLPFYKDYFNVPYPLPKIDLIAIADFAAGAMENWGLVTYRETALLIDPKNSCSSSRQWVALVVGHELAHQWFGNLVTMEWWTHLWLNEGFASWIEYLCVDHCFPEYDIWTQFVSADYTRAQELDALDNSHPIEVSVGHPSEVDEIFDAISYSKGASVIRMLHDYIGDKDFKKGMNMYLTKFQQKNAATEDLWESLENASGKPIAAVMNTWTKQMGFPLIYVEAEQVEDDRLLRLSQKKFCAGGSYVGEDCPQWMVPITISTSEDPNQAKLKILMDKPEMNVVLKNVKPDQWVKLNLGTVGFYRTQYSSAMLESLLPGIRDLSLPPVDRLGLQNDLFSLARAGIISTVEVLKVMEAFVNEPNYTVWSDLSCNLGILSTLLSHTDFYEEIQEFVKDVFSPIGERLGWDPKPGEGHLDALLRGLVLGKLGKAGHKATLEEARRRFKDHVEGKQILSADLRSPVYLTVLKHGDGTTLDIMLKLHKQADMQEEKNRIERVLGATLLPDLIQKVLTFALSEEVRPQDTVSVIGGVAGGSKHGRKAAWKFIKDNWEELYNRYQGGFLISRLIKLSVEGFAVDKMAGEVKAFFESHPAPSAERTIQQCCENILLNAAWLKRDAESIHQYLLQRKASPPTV

T lymphocytes (T cells) = assay: Suppression of DNA synthesis of PHA-stimulated T lymphocytes; format: cell-based; conditions: Homo sapiens, T-cell, 48 h, tritium thymidine incorporation, read-out: Supp. DNA Synt. T-cell IC50
How it was run: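 Healthy-donor PBMC and nylon-wool-purified T cells in serum-free AIMV medium were stimulated 48 h with 1 µg/ml PHA, with compound (0.1–250 µM) present throughout. IC50 was estimated graphically from proliferation relative to PHA-activated T cells without compound.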

NHEK cells = assay: Inhibition of DNA synthesis and proliferation of normal human epidermal keratinocytes (NHEK); format: cell-based; conditions: Homo sapiens, NHEK, 48 h, EGF-stimulated NHEK, BrdU incorporation, read-out: Supp. DNA Synt. NHEK IC50
How it was run: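 Primary human keratinocytes were grown 48 h in serum-free medium with EGF and pituitary extract, with compounds at 0.1–100 μM. DNA synthesis was measured by BrdU incorporation ELISA relative to untreated controls (100%), and IC50 was derived graphically.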

SZ95 cells = assay: Inhibition of DNA synthesis and proliferation of immortalized human sebocytes SZ95; format: cell-based; conditions: Homo sapiens, EGF-stimulated SZ95 sebocytes, tritium thymidine incorporation; read-out: Supp. DNA Synt. SZ95 IC50
How it was run: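 EGF-stimulated SZ95 sebocytes in serum-free Sebomed Complete, treated with test items at 0.1–100 μM. DNA synthesis read by 3H-thymidine incorporation (beta counting), expressed relative to untreated cells (100%). IC50 for proliferation suppression derived graphically.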

T1 sequence (P27487 whole entry): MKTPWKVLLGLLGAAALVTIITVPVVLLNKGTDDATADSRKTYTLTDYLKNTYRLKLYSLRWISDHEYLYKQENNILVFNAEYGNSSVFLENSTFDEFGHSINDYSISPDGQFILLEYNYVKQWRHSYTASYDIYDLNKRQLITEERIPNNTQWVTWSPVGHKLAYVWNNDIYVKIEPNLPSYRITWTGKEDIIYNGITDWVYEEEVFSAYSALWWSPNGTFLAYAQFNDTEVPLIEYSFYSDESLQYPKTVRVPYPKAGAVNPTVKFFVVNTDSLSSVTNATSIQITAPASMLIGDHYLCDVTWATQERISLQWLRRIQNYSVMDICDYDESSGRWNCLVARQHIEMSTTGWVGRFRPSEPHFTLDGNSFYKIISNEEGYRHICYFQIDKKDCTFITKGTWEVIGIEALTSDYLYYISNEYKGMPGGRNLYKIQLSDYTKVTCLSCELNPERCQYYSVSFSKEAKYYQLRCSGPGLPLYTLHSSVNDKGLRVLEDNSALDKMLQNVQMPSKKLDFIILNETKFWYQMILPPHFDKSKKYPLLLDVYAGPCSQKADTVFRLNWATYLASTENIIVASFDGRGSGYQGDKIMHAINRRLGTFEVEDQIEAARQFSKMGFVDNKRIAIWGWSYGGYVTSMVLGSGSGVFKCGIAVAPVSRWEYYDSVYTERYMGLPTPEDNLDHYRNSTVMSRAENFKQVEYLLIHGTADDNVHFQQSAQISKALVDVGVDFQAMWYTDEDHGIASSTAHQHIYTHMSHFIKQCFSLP

meas. IC50 (DPIV) [1] | meas. IC50 (APN) [2] | meas. IC50 (DP8/9) [3] | meas. IC50 (cAAP) [4] | IC50 (T lymphocytes (T cells)) | Compound | IC50 (NHEK cells) | IC50 (SZ95 cells)
No in- hibition | no in- hibition | no in- hibition | no in- hibition | 5.2 µM | CC(C)(CNC(=O)CC(Cc1cc(F)ccc1F)NC(=O)OCc1ccccc1)CNC(=O)C(O)C(COCc1ccccc1)NC(=O)OC(C)(C)C (centres unmarked) [Compound C19.027] | 42.1 µM | 8.53 µM
no in- hibition | no in- hibition | no in- hibition | no in- hibition | 12 µM | CC(C)(C)OC(=O)NC(CCCCNC(=O)c1cccc(NC(=O)C(O)C(Cc2ccccc2)NC(=O)OC(C)(C)C)c1)C(=O)N1CCSC1 (centres unmarked) [Compound C21.004] | 13.9 µM | 19.4 µM
